Test results reported in patent US20100112012A1, “MODULATION OF IMMUNE RESPONSES” (CLEVELAND CLINIC FOUNDATION, priority 2005, published 2010).
“Also recorded” adds a separate entry of the source.

Tests used:
NF-κB [1] = test: NF-κB-dependent reporter in H1299-NF-kBLuc cells; format: cell-based, human
Description: (§1) Transient transfections. 2×10^5 cells were plated into 6-well plates and, after overnight incubation, transfected with Lipofectamin Plus reagent (Gibco BRL) with 0.5 μg of reporter plasmids (p21-ConALuc or pNF-κBLuc) in combination with different concentrations of plasmids expressing p53, Arf, Ss-IκB, or siHDM2. Corresponding empty vectors were added in all transfections up to 2 μg of total DNA. Normalization of transfection efficiency was done by adding 0.2 μg of pCMV-LacZ plasmid. Luciferase activity and β-galactosidase activity were measured in lysates prepared 48 hours after transfection with Cell Lysis Buffer (Promega) by the luciferase assay system (Promega) or β-galactosidase enzyme system (Promega). Luminometric and colorimetric reactions were read on the Wallack 1420 plate reader (Perkin Elmer). Stable transduction of reporters. 2×10^4 cells with integrated reporter were plated in 96-well plates. After overnight incubation, chemicals or media from lentivirus-producing cells were added. At different times, cell lysates were prepared using Reporter Lysis Buffer (Promega). Luciferase or β-galactosidase activity and protein concentration were measured in aliquots of cell lysates using standard kits (Promega, Luciferase and β-galactosidase assay systems, Biorad Protein Assay Kit).

NF-κB [2] = test: Electromobility shift assay and immunofluorescent staining of nuclear NF-κB; format: cell-based, human
Excerpt: (§2) All washings were done with blocking solution.

IκBα = IκBα level (Western analysis); format: cell-based, human
Description: (§3) Cells were lysed in RIPA buffer (25 mM Tris HCl, pH 7.2, 125 mM NaCl, 1% NP40, 1% sodium deoxycholate, 1 mM EDTA) containing 1 mM PMSF (Sigma), 10 ug/ml of aprotinin (Sigma) and 10 ug/ml of leupeptin (Sigma). Protein concentrations were determined with the BioRad Dc protein assay kit. Equal protein amounts were run on gradient 4-20% precast gels (Novex) and blotted onto PVDF membranes (Amersham). The following antibodies were used: anti-p53—monoclonal mouse DO1 (Santa-Cruz), anti-p21—monoclonal mouse F-5 (Santa-Cruz), anti-mdm2—monoclonal mouse SMP14 (Santa-Cruz), anti-p65—(C20, Santa Cruz), anti-phospho-p65—(ser536, Cell Signaling), anti-IκBa—(C21, Santa Cruz), anti-p50—(NLS, Santa Cruz), anti-IKK1 (Cell Signaling), anti-γH2X (Cell Signaling), anti-actin (Santa Cruz). p53 phosphorylation status was analyzed using the phospho-p53 sampler kit from Cell Signaling according to the manufacturer's recommendations. HRP-conjugated secondary antibodies were purchased from Santa Cruz. Quantitation of the data was performed using Quantity One software from BioRad.

p53 [3] = test: p53-responsive reporter activity in tumor cells (HT1080 and others); format: cell-based, human
Description: as §1

p53 [4] = test: Phosphorylation status of p53 (Western analysis); format: cell-based, human; details: RCC45 cells, 9AA 5 μM, 16 h
Description: as §3

p65 subunit of NF-κB = test: Phosphorylation of serine 536 of p65 (Western analysis); format: cell-based, human; details: basally and after TNF-dependent induction; 9AA 10 μM
Description: as §3

p53 [5] = test: Screening for p53-activating compounds, p53-responsive reporter in RCC45ConALacZ cells; format: cell-based, human
Description: as §1
The DiverSet library of 34,000 chemical compounds and focused libraries of structural analogues of selected hits were provided by Chembridge, Calif. Cell lines with p53- or NF-κB-responsive luciferase or β-galactosidase reporters were described previously (5, 7). For screening chemicals, 2×10^4 RCC45ConALacZ cells (RCC45-based p53 reporter cells) were plated per well of 96-well plates in 200 μL of phenol-red-free RPMI medium with standard additions. After overnight incubation, the compounds were added to final concentrations of 5-15 μM (0.2 μL of compound in DMSO per well). […] After 24 h, lysis buffer with ortho-nitrophenyl-β-D-galactopyranoside (ONPG) was added and β-galactosidase activity was estimated colorimetrically by a multiwell plate reader.

proteasomal activity = test: Proteasome inhibitor assay; format: biochemical; details: direct in vitro assay (not shown)
Excerpt: The kit for assaying proteasomal activity was purchased from Boston Biochem, Inc. and used according to the manufacturer's recommendations.

HT1080 cells = test: Cell cycle analysis; format: cell-based, human; details: p53-dependent
Description: At the end of the incubation period, cells were collected, fixed and stained with propidium iodide as previously described (3a). DNA content was measured using FACScalibur (Becton Dickinson) and analyzed using CellQuest software.

topoisomerase II = test: DNA topoisomerase II activity assay; format: cell-based, human; details: direct in vitro assay, 1 h
p53 [6] = test: p53, p21 and Mdm2 levels in treated cells (Western analysis); format: cell-based, human
Description: as §3

p53 [7] = test: Transient transfection of sr-IκB with p53-responsive reporter; format: cell-based, human; details: ACHN cells, 9AA 10 μM, 24 h
Description: as §1

histone H2A.X = test: Immunofluorescent detection of phosphorylated histone H2A.X; format: cell-based, human; details: HT1080 cells, 10 μM
Excerpt: as §2

RCC cell lines = test: Growth inhibition assay, RCC, non-RCC and normal kidney (NKE) cells; format: cell-based, human
Description: Growth inhibition assay. […] Cell survival was estimated after an additional 48 hours, using standard Methylene Blue staining followed by extraction and colorimetrical detection of the dye.

RCC45 and RCC54 cells = test: Growth arrest or apoptosis of RCC cells treated with 9AA; format: cell-based, human

Description for p53-deficient cells: All cells were maintained in RPMI 1640 medium, supplemented with 10% FBS, 1 mM sodium pyruvate, 10 mM Hepes buffer, 55 nM β-mercaptoethanol and antibiotics. […] Cells with inhibited p53 expression were generated by retroviral transduction of pBabeH1-sip53 or pBabeH1-siGFP vectors for siRNA expression with following selection on puromycin.
Clonogenic survival. 5×10^3 cells were plated in 6-well plates and treated with different concentrations of drugs for 24 hours. Then fresh drug-free medium was added and the numbers of colonies were estimated 7-14 days later. Growth inhibition assay. […] Cell survival was estimated after an additional 48 hours, using standard Methylene Blue staining followed by extraction and colorimetrical detection of the dye.

Nc1c2ccccc2nc2ccccc12 [9AA, 9-aminoacridine]
basal and TNF-induced NF-κB reporter activities (NF-κB [1]; H1299-NF-kB-Luc cells, TNF 10 ng/ml): strong dose-dependent suppression; also recorded: capable of inhibiting both basal and TNF-induced activities of NF-κB | inhibition of NF-κB transactivation induced by trichostatin A (NF-κB [1]; H1299 cells, 100 nM TSA, 9AA 20 μM, 4 or 16 hours): could no longer be blocked by 9AA; also recorded: does not inhibit | binding of NF-κB to DNA (NF-κB [2]; H1299-NF-κBLuc cells, with TNF 10 ng/ml, 6 h, gel-shift): significant increase in the binding of NF-κB to DNA | nuclear accumulation and retention of NF-κB (p65) complexes (NF-κB [2]; TNF 10 ng/ml, 10 μM): greatly prolonged the time of its presence in nuclei; also recorded: causes nuclear accumulation of inactive NF-κB; also recorded: causes accumulation of p65/p50 and p50/p50 NF-κB complexes in the nuclei | composition of NF-κB complexes (NF-κB [2]; gel-shift assays with antibodies, H1299 cells): did not significantly change the composition of NF-κB complexes | level of IκBα (IκBα; PC-3 cells 10 μM 1-8 h, MCF7 cells 10 μM): gradual decrease or even complete disappearance of IκBα | TNF-stimulated induction of IκBα (IκBα; TNF 10 ng/ml, 9AA 10 μM): blocked; also recorded: inhibits reconstitution of the level of IκB protein | time of peak (maximum) p53 reporter activity (p53 [3]; HT1080 cells): 24 h | activation of p53-mediated transcription compared with DNA-damaging agents (p53 [3]; tumor cells with wild-type p53, 9AA 1-10 μM, doxorubicin 0.2-2 μM, 24 h): more strongly than doxorubicin in the majority of tumor cells tested; also recorded: more strongly than DNA-damaging agents | phosphorylation of p53 (p53 [4]): did not induce the phosphorylation of p53 | phosphorylation of p53 serine 392 (p53 [4]): increasingly phosphorylated | proportion of phosphorylated serine 536 in the p65 subunit of NF-κB (p65 subunit of NF-κB): reduce the proportion of phosphorylated serine 536; also recorded: decreases the phosphorylation of p65 in response to TNF | toxicity to p53-deficient cells (p53 dependence of cytotoxicity) (p53-deficient cells): less toxic to p53-deficient cells | activation of the p53-dependent reporter (p53 transactivation) in RCC (p53 [5]): structure primarily responsible for induction of the reporter | inhibition of proteasomal activity (proteasomal activity): ruled out | effect on the cell cycle (HT1080 cells; 3 μM): growth arrest | effect on the cell cycle (HT1080 cells; 20 μM): apoptosis | poisoning of topoisomerase II (topoisomerase II): no such activity | levels of the endogenous proteins p21 and Mdm2 (p53 [6]; cells treated for 16 h): dose-dependent increase | p53 mRNA expression (p53 [6]; data not shown): No increase | stabilization and accumulation of p53 protein (p53 [6]; treated cells (HT1080, 5 μM 9AA, 16 hours in FIG. 6)): induced stabilization and accumulation of p53 protein; also recorded: leads to p53 stabilization | activation of a p53-dependent reporter in the presence of sr-IκB (p53 [7]): could not further activate | phosphorylation of histone H2A.X (histone H2A.X): Neither 9AA nor QC induced phosphorylation of histone H2A.X | IC50 in RCC cells compared with non-RCC cells (RCC cell lines; 6 RCC and 6 non-RCC cell lines, growth inhibition assay): in the same range as for non-RCC cells | sensitivity of RCC-derived cell lines versus normal kidney epithelial (NKE) cells (RCC cell lines; 72 h after treatment): more toxic for RCC than for NKE cells; also recorded: more sensitive to 9AA than normal kidney epithelial cells | cellular effect in RCC45 and RCC54 cells (RCC45 and RCC54 cells; 2 μM): growth arrest | cellular effect in RCC45 and RCC54 cells (RCC45 and RCC54 cells; 10 μM): apoptosis
